pIC50: −log10 of the molar value.

What is called pIC50 is the IC50 on a negative log10 scale, so that one unit is a factor of ten.

The first series deals with SYK kinase (Homo sapiens (Human), UniProt P43405). In words: In vitro SYK inhibition assay (HTRF kinase assay). It is filed as biochemical. The following applies: read-out: Syk (IC50). How it is done:
SYK kinase was purified as a full length protein in a baculovirus system near homogeneity. All kinase assays were performed with the Kinase TK (tyrosine kinase) HTRF (Homogeneous Time Resolved Fluorescence) assay developed by Cisbio international. […] Reactions were initiated upon introduction of the enzyme and terminated with the addition of one reaction volume (25 μl) of HTRF detection buffer. Plates were incubated for one hour at room temperature and the time resolved Fluorescence resonance energy transfer signal was measured in a Pherastar FS microplate reader (BMG Labtech).
Most of the kinases tested in this study were cloned, expressed and purified in the facilities of the inventors. They were expressed either as N-terminus hexahistidine-, hexahistidine-asparagine- or GST-tagged enzymes in a baculovirus or in a Colibacille expression system. Remaining enzymes (JAKs) were purchased from Millipore or Proqinase. For each enzyme, steady state kinetic parameters were determined and validated with known inhibitors.
The analysis of the effect of compounds on kinase activity was assessed with the HTRF® KinEASE assay (Cisbio International), an immuno-assay based on the quantification of the level of phosphorylation of a biotinylated peptide substrate using anti-phospho-specific antibody labeled with Europium (Eu^3+) cryptate. This assay comprises two steps: —an enzymatic step, during which the peptide substrate, the kinase, ATP, Mg^2+ and/or Mn^2+ are incubated with varying concentration of drug (from 0 to 10 μM); —a detection step, at the end of the reaction (stopped by addition of EDTA which chelates Mg^2+), the antibody anti-phospho peptide-Eu^3+ (emission 620 nm) and streptavidin XL-665 (emission 665 nm) are added to the reaction mix. After incubation, the obtained signal is proportional to the concentration of phosphorylated peptide in the sample. All measurements were performed on a BMG Labtech Pherastar FS apparatus. Results are expressed in delta fluorescence (DF) unit defined as follow DF %=[(ratio−ratio blank)/(ratio blank)]*100, where ratio=(665 nm/620 nm)*10^4. Each experiment was performed in duplicate and repeated two or three times.
(In general: TR-FRET usually uses a lanthanide donor and a delayed reading to cut background.)
Consider `N#Cc1ccnc(Nc2cccc(-c3cnc(N4CCNC(=O)C45CC5)o3)c2)n1` [Compound 002, 2-{3-[2-(8-Oxo-4,7-diaza-spiro[2.5]oct-4-yl)-oxazol-5-yl]-phenylamino}-pyrimidine-4-carbonitrile], for which the pIC50 was over 6.30. On to `O=C1NCCN(c2ncc(-c3cc(CN4CCOCC4)cc(Nc4nccc(C(F)(F)F)n4)c3)o2)C12CC2` [Compound 003, 4-{5-[3-Morpholin-4-ylmethy1-5-(4-trifluoromethyl-pyrimidin-2-ylamino)-phenyl]-oxazol-2-yl}-4,7-diaza-spiro[2.5]octan-8-one], for which the pIC50 was over 6.30.

Regarding `O=C1NCCN(c2ncc(-c3cc(Nc4nccc(-c5cccs5)n4)ccc3OCCN3CCOCC3)o2)C12CC2` [Compound 004, 4-{5-[2-(2-Morpholin-4-yl-ethoxy)-5-(4-thiophen-2-yl-pyrimidin-2-ylamino)-phenyl]-oxazol-2-yl}-4,7-diaza-spiro[2.5]octan-8-one], the pIC50 is over 6.30. Same read-out and setting: then `Cc1cc(Nc2nccc(C(F)(F)F)n2)cc(-c2cnc(N3CCNC(=O)C34CC4)o2)c1` [Compound 005, 4-{5-[3-Methy1-5-(4-trifluoromethyl-pyrimidin-2-ylamino)-phenyl]-oxazol-2-yl}-4,7-diaza-spiro[2.5]octan-8-one], with over 6.30; and `Cc1ccnc(Nc2cc(CN3CCOCC3)cc(-c3cnc(N4CCNC(=O)C45CC5)o3)c2)n1` [Compound 006, 4-{5-[3-(4-Methyl-pyrimidin-2-ylamino)-5-morpholin-4-ylmethyl-phenyl]-oxazol-2-yl}-4,7-diaza-spiro[2.5]octan-8-one], with over 6.30; and `CCc1ccnc(Nc2cccc(-c3cnc(N4CCNC(=O)C45CC5)o3)c2)n1` [Compound 007, 4-{5-[3-(4-Ethyl-pyrimidin-2-ylamino)-phenyl]-oxazol-2-yl}-4,7-diaza-spiro[2.5]octan-8-one], with over 6.30. For the molecule `O=C1NCCN(c2ncc(-c3cccc(Nc4nccc(C(F)(F)F)n4)c3)o2)C12CC2` [Compound 008, 4-{5-[3-(4-Trifluoromethyl-pyrimidin-2-ylamino)-phenyl]-oxazol-2-yl}-4,7-diaza-spiro[2.5]octan-8-one], the pIC50 was over 6.30. `Cc1ccnc(Nc2cccc(-c3cnc(N4CCNC(=O)C45CCCC5)o3)c2)n1` [Compound 009, 6-{5-[3-(4-Methyl-pyrimidin-2-ylamino)-phenyl]-oxazol-2-yl}-6,9-diaza-spiro[4.5]decan-10-one]: the pIC50 is over 6.30. Same read-out and setting: in the case of `O=C1NCCN(c2ncc(-c3cccc(Nc4nccc(-c5ccccc5)n4)c3)o2)C12CC2` [Compound 010, 4-{5-[3-(4-Phenyl-pyrimidin-2-ylamino)-phenyl]-oxazol-2-yl}-4,7-diaza-spiro[2.5]octan-8-one] it was over 6.30; in that of `CC(C)c1ccnc(Nc2cccc(-c3cnc(N4CCNC(=O)C45CCC5)o3)c2)n1` [Compound 011, 5-{5-[3-(4-Isopropyl-pyrimidin-2-ylamino)-phenyl]-oxazol-2-yl}-5,8-diaza-spiro[3.5]non-9-one], over 6.30.

With `Cc1ccnc(Nc2cccc(-c3cnc(N4CCNC(=O)C45CCC5)o3)c2)n1` [Compound 012, 5-{5-[3-(4-Methyl-pyrimidin-2-ylamino)-phenyl]-oxazol-2-yl}-5,8-diaza-spiro[3.5]nonan-9-one], the pIC50 was over 6.30. For the molecule `CC(C)c1ccnc(Nc2cccc(-c3cnc(N4CCNC(=O)C45CC5)o3)c2)n1` [Compound 013, 4-{5-[3-(4-Isopropyl-pyrimidin-2-ylamino)-phenyl]-oxazol-2-yl}-4,7-diaza-spiro[2.5]octan-8-one], the pIC50 is over 6.30. Consider `O=C1NCCN(c2ncc(-c3cccc(Nc4nccc(N5CCOCC5)n4)c3)o2)C12CC2` [Compound 014, 4-{5-[3-(4-Morpholin-4-yl-pyrimidin-2-ylamino)-phenyl]-oxazol-2-yl}-4,7-diaza-spiro[2.5]octan-8-one], for which the pIC50 is under 5.70.

Turning to `O=C1NCCN(c2ncc(-c3cccc(Nc4nccc(-c5cccs5)n4)c3)o2)C12CC2` [Compound 015, 4-{5-[3-(4-Thiophen-2-yl-pyrimidin-2-ylamino)-phenyl]-oxazol-2-yl}-4,7-diaza-spiro[2.5]octan-8-one], the pIC50 is over 6.30.

For the molecule `O=C1NCCN(c2ncc(-c3cccc(Nc4nccc(C(F)(F)F)n4)c3)o2)C12CCC2` [Compound 016, 5-{5-[3-(4-Trifluoromethyl-pyrimidin-2-ylamino)-phenyl]-oxazol-2-yl}-5,8-diaza-spiro[3.5]nonan-9-one], the pIC50 is over 6.30.

As for `O=C1NCCN(c2ncc(-c3cc(Nc4nccc(C(F)(F)F)n4)ccc3OCCN3CCOCC3)o2)C12CC2` [Compound 017, 4-{5-[2-(2-Morpholin-4-yl-ethoxy)-5-(4-trifluoromethyl-pyrimidin-2-ylamino)-phenyl]-oxazol-2-yl}-4,7-diaza-spiro[2.5]octan-8-one], the negative-log IC50 (pIC50) was over 6.30. With `Cc1ccnc(Nc2ccc(F)c(-c3cnc(N4CCNC(=O)C45CC5)o3)c2)n1` [Compound 018, 4-{5-[2-Fluoro-5-(4-methyl-pyrimidin-2-ylamino)-phenyl]-oxazol-2-yl}-4,7-diaza-spiro[2.5]octan-8-one], the pIC50 is over 6.30. Take `Cc1ccnc(Nc2cccc(-c3cnc(N4CCNC(=O)C45CC5)o3)c2C)n1` [Compound 020, 4-{5-[2-Methyl-3-(4-methyl-pyrimidin-2-ylamino)-pheny]-oxazol-2-yl}-4,7-diaza-spiro[2.5]octan-8-one]: the negative-log IC50 (pIC50) is under 5.70. Regarding `Cc1ccnc(Nc2cccc(-c3cnc(N4CCNC(=O)C45CC5)o3)c2)c1` [Compound 021, 4-{5-[3-(4-Methyl-pyridin-2-ylamino)-phenyl]-oxazol-2-yl}-4,7-diaza-spiro[2.5]octan-8-one], the pIC50 is 5.70 to 6.30.

As for `O=C1NCCN(c2ncc(-c3cccc(Nc4nccs4)c3)o2)C12CC2` [Compound 022, 4-{5-[3-(Thiazol-2-ylamino)-phenyl]-oxazol-2-yl}-4,7-diaza-spiro[2.5]octan-8-one], the pIC50 is over 6.30.

The next series concerns Salmonella typhimurium strain TA98. Briefly: AMES mutagenic assay, TA98 strain. The note with it: Salmonella typhimurium, 0.25 μg per well. How it is done: Mutagenic activity of test compounds and their metabolites (produced by rat liver S9 fraction) was evaluated in the Salmonella typhimurium strains TA100 and TA98 according to the Ames assay (Toxicology in vitro, (2001), 15: 105-114). […] The results are expressed as a mutagenicity ratio in comparison to solvent controls.
The results are expressed as a ratio of the number of colonies over the number of colonies in the negative control (DMSO).
Consider `O=[N+]([O-])c1ccc2c(c1)Cc1ccccc1-2` [Compound 2-NF, 2-Nitrofluorene, reference compound], for which the “Mean revertant colony counts” value turned out to be 59.7.

The series is the same for the next values; noted with them: TA98, absence of S-9, 0.25 μg per well (positive control).
As to `O=[N+]([O-])c1ccc2c(c1)Cc1ccccc1-2` [Compound 2-NF, 2-Nitrofluorene, reference compound], the Ratio treated/solvent is 13.8.
